In patent publication US8741299B2, “Method for treating pathologies associated with hypoxia using MIF inhibitors” (The Feinstein Institute for Medical Research, priority 2011, dated 2014):
“Also recorded” adds a separate entry of the source.

Tests used:
[1] = test system: Human lung fibroblasts (CCL-210); experiment: Hypoxia-induced proliferation of human lung fibroblasts (BrdU incorporation, cell counts); assay type: cell-based
Method: Cell culture studies: Human lung fibroblasts (CCL-210) were purchased from American Type Culture Collection (ATCC, Manassas, Va.). Cells were cultured in Eagle Minimum Essential Medium (EMEM) (ATCC, Manassas, Va.) with 10% fetal bovine serum (FBS) at 37′C, 5% CO2. The cells were subcultured using standard procedures and were used for experiment during passages 3 to 10.
(§1) Cell proliferation assessments: 5-bromo-2-deoxyuridine (BrdU) incorporation measured by a commercially available kit (Calbiochem, EMD Chemical Inc., Gibbstown, N.J.) was used to quantify the fibroblast proliferation, BrdU is incorporated into the newly synthesized DNA of replicating cells (during the S phase of the cell cycle). The assay was performed according to the manufacturer's instructions. […] BrdU incorporated in newly synthesized DNA was detected with a BrdU antibody using chemiluminescence for quantification. […]
Hypoxia in vitro: A modular incubator chamber (Billups-Rothenberg Inc., Del Mar, Calif.) was used for the cell hypoxia studies. To induce hypoxia, the chamber was tightly closed and flushed with a gas mixture consisting of 95% nitrogen and 5% CO2 until the desired ambient oxygen concentration of 1% was reached as measured using an oxygen sensor (BioSpherix, Lacona, N.Y.). […]
Cell proliferation, under both normoxic and hypoxic conditions, was then determined using the methods described above.

CCL-210 cells = experiment: Lactate dehydrogenase release into the medium of treated cells (cytotoxicity); assay type: cell-based, human; details: at the concentration used (100 μM elsewhere in the source), data not shown
[2] = test system: primary lung fibroblasts (mif-/-); experiment: Proliferation of primary mif-/- lung fibroblasts in hypoxia with conditioned medium from hypoxic mif+/+ cells; assay type: cell-based, mouse; details: 1% oxygen; vs carrier DMSO
Method: Primary lung fibroblasts from MIF knockout (mif−/−) or their counterpart wild type C57BL6 mice (mif+/+) were established by using outgrowth from lung explants (36). Briefly, mouse lungs were removed using aseptic technique, carefully dissected free of connective tissue and fat, and cut into small pieces (<1 mm). These lung tissue pieces were cultured in a dish containing EMEM, 10% FBS, and 1% penicillin/streptomycin, at 37° C., 5% CO2 in air. Medium was changed twice a week. After about two weeks, fibroblasts had reached approximately 80% confluence. The fibroblasts were removed by trypsin and filtered using a sterilized 100-μm nylon cell strainer (Falcon) to remove any remaining tissue pieces. […]
as §1, with “cycle).” for “cycle). The assay was performed according to the manufacturer's instructions.”
To further examine the role of MIF in hypoxia-induced fibroblast proliferation, the ability of primary lung fibroblasts (mif^−/− and mir^+/+) cultured under normoxic and hypoxic conditions for 24 hrs, was assessed. […]

C57BL6 mice = experiment: Mouse hypoxia model of pulmonary vascular remodeling and hypertension; assay type: in vivo
Excerpt: Hypoxia in vivo: C57BL6 mice (male, 8˜10 weeks old) were purchased from Taconic Farms Inc. (Hudson, N.Y.). All the animals were housed in a pathogen-free environment, under standard light and dark cycles, with free access to food and water until they were used for the experiments. All experiments involving animals were reviewed and approved by Institutional Animal Care and Use Committee of The Feinstein Institute for Medical Research. An animal hypoxia chamber system (BioSpherix, Lacona, N.Y.) was used for the in vivo studies. […] Mice were randomly divided into 4 groups and treated with normoxia, or hypoxia for 3, 10, or 42 days. At the time of euthanasia, animals were anesthetized with isoflurane and 100% oxygen. A 26 gauge needle connected to a transducer was introduced into the right ventricular trans-diaphragmatically. The right ventricular (RV) pressure was measured and recorded using a computerized hemodynamic recording system (HAEMODYN, Harvard Apparatus, Mass.). After the RV pressure measurement, blood was taken from the RV and plasma was stored in −80° C. for MIF measurement. The mice were then euthanized by exsanguination. The hearts were removed, dissected and weighed. The heart weights were expressed as a ratio of the weight of the right ventricle to the weight of the left ventricle+septum (RV/S+LV). The lung was also collected; the left side was used for measure MIF mRNA expression, and the right side fixed, at inflation, in 4% paraformaldehyde for lung vascular histology study. […] Immediately after sub-cutaneous pump implantation on the dorsum of the animals, the mice were put into hypoxia chamber undergoing 10% normobaric hypoxia for 10 days or 21 days. At the indicated times, the RV pressure, heart weight (RV/S+LV), and vascular changes were determined in each group using the methods described above. Vascular wall thickness: Lung tissues were immunostained using anti α-smooth muscle actin (α-SMA) antibody (Abcam Inc, Cambridge Mass.) to reveal the muscular layer of the vessel wall. External diameter (ED) and internal diameter (ID) of 50 alveolar vessels (with ED of 40 to 100 μm) per animal were determined and recorded, by an independent investigator blinded to the sample's origin. The total wall thickness (WT) was measured as the mean distance between the internal and the external diameter. The percentage wall thickness (WT %) was calculated by the formula: WT %=2×WT/ED×100%. (38).

mouse brain = experiment: MicroPET 18F-FDG uptake in the brain of hypoxic mice; assay type: in vivo
Excerpt: MicroPET scanning MicroPET scanning can be conducted using an appropriate system, such as Siemen's Inveon. The Inveon is a dedicated small animal positron emission tomography (PET) scanner housed in the Feinstein Institute for Medical Research. This scanner is an ultra-high resolution tomography that includes a built-in transmission source used for the quantitative assessment of radiotracer binding. The use of ^18FDG is preferred.
Scanning methods: All animals being scanned are housed in the Center for Comparative Physiology, within the Feinstein Institute. Animals receive an intraperitoneal (i.p.) injection of ^18FDG (between 1-2 mCi). […] Significant differences in absolute and region-of-interest to whole-brain relative metabolic glucose uptake are analyzed using student t-tests and repeated measures ANOVA.
Further developing these studies, it is herein disclosed that inhibition of MIF prevented altered 2-deoxy-2-(^18F)fluoro-D-glucose (^18F-FDG) uptake in the brain of hypoxic mice (FIG. 8). […] In this study, a standardized uptake value (SUV) (56) was used, a simple semi-quantitative index, calculated by measuring the activity concentration in a region of interest (ROI) during a short-duration (10 min) static scan acquired 60 min after injection and then normalized for the injected dose or weight of the animal. […]

mice = experiment: Clock maze task (spatial working memory) in hypoxic mice; assay type: in vivo, mouse; details: hypoxia, ISO-92 delivered to the dorsal hippocampus via osmotic pumps, n=4
Method: Clock maze: A navigational test is used to measure spatial working memory, modified from Deacon and Rawlins (2002). The apparatus (termed “clock maze”) is a circular base platform (diameter, 85 cm) surrounded by a clear wall (30 cm high), sealed to the base by aquarium sealant to make it waterproof. Cold water (20° C.±1° C.) is added to a depth of 2 cm, sufficient to wet the underside of the belly of mice. The perimeter wall is pierced by 12 holes, 4 cm in diameter, arranged equidistantly around the circumference so that they are 23 cm apart. The lower edge of each hole is 3 cm above the maze floor, that is, at mouse head level. Eleven of these tubes were sealed with black plugs, flush with the internal pool wall surface; one is open and led to an escape pipe, which is 4 cm in diameter, made of black flexible plastic. Thus, from within the clock maze, the true exit looks similar to the decoys, even to the human eye. […] The animal is placed facing one of the long sides in a semi-random fashion (not more than 3 consecutive times the same way) and the time taken to enter the open tube was recorded by software (Ethovision). […] The latency to reach the target is recorded by software (Ethovision) with a maximum of 60 sec for each trial. […]
The navigational test that measured spatial working memory was modified from Deacon and Rawlins (2002). […]

[3] = 1.8 mg/kg/day s.c. osmotic pump, 10% oxygen, 10 or 21 days

CC(C)(C)COC(=O)CC1CC(c2ccc(O)c(F)c2)=NO1 (stereo not drawn) [ISO-92]
growth of cells cultured in normoxic conditions ([1]; CCL-210, 100 μM ISO-92, normoxia): no effect
hypoxia-induced cell proliferation ([1]; CCL-210, 1% oxygen, 24 hrs, vs vehicle DMSO): inhibited by ISO-92 in a dose-dependent manner; also recorded: able to inhibit hypoxia-driven proliferation; also recorded: inhibited proliferation in a dose-dependent manner
cytotoxicity / lactate dehydrogenase release into culture medium (CCL-210 cells): not cytotoxic; also recorded: nor did it cause accumulation of lactate dehydrogenase
increased proliferation of mif-/- fibroblasts induced by conditioned medium from hypoxic mif+/+ cells [2]: abrogated; also recorded: inhibitable; also recorded: inhibited
right ventricle hypertrophy (RV/S+LV) (C57BL6 mice; [3]): significantly reduced
right ventricular systolic pressure (RVSP), effect in words (C57BL6 mice; [3]): significantly reduced
vascular wall thickness (VascularWT %) / pulmonary vascular remodeling (C57BL6 mice; [3]): significantly reduced
right ventricular systolic pressure (C57BL6 mice; at 21 days hypoxia, normoxia 13.8±2.3, vehicle 20.2±1.4): 16.8±1.5 mm Hg
reduction of right ventricular systolic pressures (C57BL6 mice; at 21 days hypoxia, relative to vehicle and normoxia): approximately 53%
hypoxia-induced increase in brain glucose metabolism (18FDG images) (mouse brain; 10 days 10% hypoxia, ISO-92 via osmotic pump): blocked completely
semi-quantitative 18F-FDG uptake (SUV) of specific brain regions, median value (mouse brain; 10 days hypoxia, differences not statistically significant): lower in each case
performance in the clock maze task (working memory) (mice): completely normal performance
